Values quoted from earlier work, collected in patent US20160089380A1, “PROGESTERONE IMPREGNATED VAGINAL RING/PESSARY” (YALE UNIVERSITY, priority 2014, published 2016).

How the values were obtained:
women [1] = settings: two studies
women [2] = system: women

CC(=O)[C@H]1CC[C@H]2[C@@H]3CCC4=CC(=O)CC[C@]4(C)[C@H]3CC[C@]12C [progesterone]
risk of preterm birth <34 weeks (RR) (women [1]; 438 women, 95% CI 0.45 to 0.90): 0.64
risk of preterm birth at <28 weeks' gestation (RR) (women [1]; 1115 women, 95% CI 0.37 to 0.93): 0.59
risk of preterm birth <37 weeks (average RR) (women [2]; 10 studies, 1750 women, 95% CI 0.42 to 0.74): 0.55
risk of preterm birth <34 weeks (average RR) (women [2]; five studies, 602 women, 95% CI 0.14 to 0.69): 0.31
increase in pregnancy prolongation, mean difference (MD) (women [2]; one study, 148 women, 95% CI 2.15 to 6.79): 4.47 weeks
